# Measurements: patent US20060019954A1, “Method for reducing the likelihood of the occurrence of cardiac arrhythmias” (Cedars-Sinai Medical Center, priority 2004, published 2006)
# Test system: SCD canine subjects (myocardial infarction, complete AV block, NGF to left stellate ganglion)
# Test: Effect of BRL 37344 infusion in the canine sudden cardiac death (SCD) model
# Assay type: in vivo
# Text: The canine SCD model is created by inducing myocardial hyperinnervation within the left stellate ganglion in combination with creating a complete atrioventricular (AV) block and inducing a relatively mild myocardial infarction (MI). The AV block is typically created by ablating the AV node of the heart using an ablation catheter and the MI is induced by ligating the left anterior descending portion of the coronary artery. Myocardial hyperinnervation is stimulated by application of nerve growth factor (NGF) or other neurtrophic vectors to the left stellate ganglion. Alternatively, electrical stimulation signals may be applied to the left stellate ganglion.
# Four canine groups were evaluated in this study. MI was created in each of the canine subjects by ligating the left anterior descending coronary artery. Complete AV block was created by radiofrequency ablation of the atrioventricular junction in the MI, SCD and RSG Groups. An ICD was used to monitor for the occurrence of ventricular arrhythmias. Nerve growth factor (NGF) was infused by an osmotic pump throughout a 4-5 week period in the left stellate ganglion (LSG) of the canine subjects in the SCD Group and in the right stellate ganglion (RSG) of the canine subjects in the RSG Group. The canine subjects in the SCD Group was characterized by a high incidence of SCD (44%), long QTc intervals and frequent episodes of ventricular tachycardia, whereas the RSG Group had no SCD, short QTc intervals and few episodes of VT.
# Two canine groups were studied and compared to ascertain the effect of a β3 adrenergic receptor agonist (BRL 37344) on the incidence of phase-2 VT, typically leading to sudden cardiac death. Table 4 compares the incidence of phase-2 VT, QTc intervals and the size of myocardial infarction (“MI”) of SCD canine subjects and SCD canine subjects receiving BRL 37344 infusion.
# β3 adrenergic receptor agonist BRL 37344 was infused subcutaneously by an osmotic pump (2 μg/kg/hr) for two weeks in two canine subjects with myocardial infarction, complete atrioventricular block and nerve growth factor to the left stellate ganglion (BRL Group). Surface ECG was continuously recorded by Data Sciences International (DSI) and analyzed manually.
compound,measurement,setting,value
C[C@H](Cc1ccc(OCC(=O)O)cc1)NC[C@H](O)c1cccc(Cl)c1 [BRL 37344],Effect on incidence of ventricular arrhythmias,"2 μg/kg/hr by osmotic pump for a two week period, mammalian SCD models",effective in significantly reducing the incidence of ventricular arrhythmias
same,Incidence of Phase-2 VT,"SCD canine subjects, BRL 37344 2 μg/kg/hr subcutaneous by osmotic pump for two weeks, n=2, SCD Group without infusion 2.0 ± 2.0 per day",0.08±0.11 per day
same,QTc Interval,"SCD canine subjects, BRL 37344 2 μg/kg/hr subcutaneous infusion, throughout follow-up, SCD Group without infusion 400 ms",350 ms
same,Size of MI,"SCD canine subjects, BRL 37344 2 μg/kg/hr subcutaneous infusion, SCD Group without infusion 17 ± 4%",16±1.2%
same,"Phase-2 VT episodes, first canine subject of the BRL Group",short runs of VT episodes observed from day 36 to day 44 after surgery,no phase-2 VT for five weeks
same,Occurrence of sudden cardiac death during follow-up,"two canine subjects of the BRL Group, followed up for two months",without SCD
same,"Phase-2 VT episodes, second canine subject of the BRL Group",two months follow-up,no phase-2 VT episodes
